Results as given in US8129389B2, “Substituted oxindole derivatives, medicaments containing the latter and use thereof” (Abbott GmbH & Co. KG, priority 2005, dated 2012).
Where two headings read alike, the source gives them in different places.

Biological target: T1, human V1b receptors (Homo sapiens, UniProt P47901)
T1 construct: expressed in transfected cells
T1 sequence (P47901 1-424): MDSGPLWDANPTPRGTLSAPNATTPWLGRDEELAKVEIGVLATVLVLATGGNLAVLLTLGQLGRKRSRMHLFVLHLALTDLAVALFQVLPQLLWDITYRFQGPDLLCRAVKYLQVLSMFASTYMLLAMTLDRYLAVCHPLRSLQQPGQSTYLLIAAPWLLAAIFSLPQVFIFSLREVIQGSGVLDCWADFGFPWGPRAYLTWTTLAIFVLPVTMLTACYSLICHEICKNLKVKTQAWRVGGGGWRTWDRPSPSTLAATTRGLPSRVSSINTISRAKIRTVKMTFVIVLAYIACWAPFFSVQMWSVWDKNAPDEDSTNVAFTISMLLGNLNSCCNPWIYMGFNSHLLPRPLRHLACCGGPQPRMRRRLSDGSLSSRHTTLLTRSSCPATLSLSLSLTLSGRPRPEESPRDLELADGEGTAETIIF
Assay: Vasopressin V1b receptor binding assay
Description: Vasopressin V1b Receptor Binding Assay:
These DMSO solutions were diluted 1:10 with assay buffer. The substance concentration was further diluted 1:10 in the assay mixture.
The nonspecific binding was determined with 10^−6 M AVP. Determinations in triplicate were carried out.
The affinities for the human vasopressin V1b receptor were measured, and affinity constants determined, in the above assay for the inventive examples.
The affinities of the compounds (I) of the invention for the human vasopressin V1b receptor were measured in accordance with the above assays, and the affinity constants (Ki) were determined. Table 1 below details the V1b receptor affinity of selected compounds (+++ means <10 nM and ++ means 10-100 nM).

[1] = Table 1, human vasopressin V1b receptor affinity, read-out: V1b Ki
[2] = membranes from CHO-K1 cells, 3H-AVP displacement, read-out: measured Ki values, affinities for the vasopressin V1b receptor

Compound	Ki [1] [nM]	Ki [2] [nM]
CCOc1ccccc1C1(NC(=O)N2CCN(c3ccncc3)CC2)C(=O)N(S(=O)(=O)c2ccc(C#N)cc2)c2ccc(C#N)cc21 (stereo not shown) [Example 14, 4-(Pyridin-4-yl)piperazine-1-[1-(4-cyanobenzenesulfonyl)-5-cyano-2-oxo-3-(2-ethoxyphenyl)-2,3-dihydro-1H-indol-3-yl]carboxamide]	< 10	< 100
CCOc1ccccc1C1(NC(=O)N2CCN(c3ccncc3)CC2)C(=O)N(S(=O)(=O)c2ccc(C)cc2OC)c2ccc(C#N)cc21 (stereo not shown) [Example 15, 4-(Pyridin-4-yl)piperazine-1-[1-(2-methoxy-4-methylbenzenesulfonyl)-5-cyano-2-oxo-3-(2-ethoxyphenyl)-2,3-dihydro-1H-indol-3-yl]carboxamide]	< 10	< 100
CCOc1ccccc1C1(NC(=O)N2CCN(c3ccncc3)CC2)C(=O)N(S(=O)(=O)c2ccc(OC)cc2OC)c2ccc(C#N)cc21 (stereo not shown) [Example 16, 4-(Pyridin-4-yl)piperazine-1-[1-(2,4-dimethoxybenzenesulfonyl)-5-cyano-2-oxo-3-(2-ethoxyphenyl)-2,3-dihydro-1H-indol-3-yl]carboxamide]	< 10	< 100
CCOc1ccccc1C1(NC(=O)N2CCN(c3ccncc3)CC2)C(=O)N(S(=O)(=O)c2ccc([N+](=O)[O-])cc2)c2ccc(C#N)cc21 (stereo not shown) [Example 17, 4-(Pyridin-4-yl)piperazine-1-[1-(4-nitrobenzenesulfonyl)-5-cyano-2-oxo-3-(2-ethoxyphenyl)-2,3-dihydro-1H-indol-3-yl]carboxamide]	< 10	< 100
CCOc1ccccc1C1(OC(=O)N2CCN(c3ccncc3)CC2)C(=O)N(S(=O)(=O)c2ccc(C#N)cc2)c2ccc(C#N)cc21 (stereo not shown) [Example 18, 1-(4-Cyanobenzenesulfonyl)-5-cyano-2-oxo-3-(2-ethoxyphenyl)-2,3-dihydro-1H-indol-3-yl 4-(pyridin-4-yl)piperazine-1-carboxylate]	10 to 100	< 100
CCOc1ccccc1C1(OC(=O)N2CCN(c3ccncc3)CC2)C(=O)N(S(=O)(=O)c2ccc([N+](=O)[O-])cc2)c2ccc(C#N)cc21 (stereo not shown) [Example 19, 1-(4-Nitrobenzenesulfonyl)-5-cyano-2-oxo-3-(2-ethoxyphenyl)-2,3-dihydro-1H-indol-3-yl 4-(pyridin-4-yl)piperazine-1-carboxylate]	< 10	< 100
CCOc1ccccc1C1(OC(=O)N2CCN(c3ccncc3)CC2)C(=O)N(S(=O)(=O)c2ccc(C)cc2OC)c2ccc(C#N)cc21 (stereo not shown) [Example 20]	< 10	< 100
CCOc1ccccc1C1(OC(=O)N2CCN(c3ccncc3)CC2)C(=O)N(S(=O)(=O)c2ccc(F)cc2)c2ccc(C#N)cc21 (stereo not shown) [Example 21, 1-(4-Fluorobenzenesulfonyl)-5-cyano-2-oxo-3-(2-ethoxyphenyl)-2,3-dihydro-1H-indol-3-yl 4-(pyridin-4-yl)piperazine-1-carboxylate]	10 to 100	< 100
CCOc1ccccc1C1(OC(=O)N2CCN(c3ccccn3)CC2)C(=O)N(S(=O)(=O)c2ccc(OC)cc2OC)c2ccc(C#N)cc21 (stereo not shown) [Example 25, 1-(2,4-Dimethoxybenzenesulfonyl)-5-cyano-2-oxo-3-(2-ethoxyphenyl)-2,3-dihydro-1H-indol-3-yl 4-(pyridin-2-yl)piperazine-1-carboxylate]	10 to 100	< 100
CCOc1ccccc1C1(OC(=O)N2CCN(c3cc(C#N)ccn3)CC2)C(=O)N(S(=O)(=O)c2ccc(OC)cc2OC)c2ccc(C#N)cc21 (stereo not shown) [Example 26, 1-(2,4-Dimethoxybenzenesulfonyl)-5-cyano-2-oxo-3-(2-ethoxyphenyl)-2,3-dihydro-1H-indol-3-yl 4-(4-cyanopyridin-2-yl)piperazine-1-carboxylate]	< 10	< 100
CCOc1ccccc1C1(OC(=O)N2CCN(c3ncccn3)CC2)C(=O)N(S(=O)(=O)c2ccc(OC)cc2OC)c2ccc(C#N)cc21 (stereo not shown) [Example 27, 1-(2,4-Dimethoxybenzenesulfonyl)-5-cyano-2-oxo-3-(2-ethoxyphenyl)-2,3-dihydro-1H-indol-3-yl 4-(pyrimidin-2-yl)piperazin-1-carboxylate]	10 to 100	< 100
CCOc1ccccc1C1(OC(=O)N2CCN(c3cnccn3)CC2)C(=O)N(S(=O)(=O)c2ccc(OC)cc2OC)c2ccc(C#N)cc21 (stereo not shown) [Example 29, 1-(2,4-Dimethoxybenzenesulfonyl)-5-cyano-2-oxo-3-(2-ethoxyphenyl)-2,3-dihydro-1H-indol-3-yl 4-(pyrazin-2-yl)piperazine-1-carboxylate]	10 to 100	< 100
CCOc1ccccc1C1(OC(=O)N2CCN(c3nccs3)CC2)C(=O)N(S(=O)(=O)c2ccc(OC)cc2OC)c2ccc(C#N)cc21 (stereo not shown) [Example 30, 1-(2,4-Dimethoxybenzenesulfonyl)-5-cyano-2-oxo-3-(2-ethoxyphenyl)-2,3-dihydro-1H-indol-3-yl 4-(thiazol-2-yl)piperazine-1-carboxylate]	< 10	< 100
CCOc1ccccc1C1(NC(=O)N2CCN(c3nccs3)CC2)C(=O)N(S(=O)(=O)c2ccc(OC)cc2OC)c2ccc(C#N)cc21 (stereo not shown) [Example 31, 4-(Thiazol-2-yl)piperazine-1-[1-(2,4-dimethoxybenzenesulfonyl)-5-cyano-2-oxo-3-(2-ethoxyphenyl)-2,3-dihydro-1H-indol-3-yl]carboxamide]	< 10	< 100
CCOc1ccccc1C1(NC(=O)N2CCN(c3ncccc3C)CC2)C(=O)N(S(=O)(=O)c2ccc(OC)cc2OC)c2ccc(C#N)cc21 (stereo not shown) [Example 32, 4-(3-Methylpyridin-2-yl)piperazine-1-[1-(2,4-dimethoxybenzenesulfonyl)-5-cyano-2-oxo-3-(2-ethoxyphenyl)-2,3-dihydro-1H-indol-3-yl]carboxamide]	10 to 100	< 100
CCOc1ccccc1C1(NC(=O)N2CCN(c3ccc(C#N)cn3)CC2)C(=O)N(S(=O)(=O)c2ccc(OC)cc2OC)c2ccc(C#N)cc21 (stereo not shown) [Example 33, 4-(5-Cyanopyridin-2-yl)piperazine-1-[1-(2,4-dimethoxybenzenesulfonyl)-5-cyano-2-oxo-3-(2-ethoxyphenyl)-2,3-dihydro-1H-indol-3-yl]carboxamide]	< 10	< 100
CCOc1ccccc1C1(NC(=O)N2CCN(c3ncccn3)CC2)C(=O)N(S(=O)(=O)c2ccc(OC)cc2OC)c2ccc(C#N)cc21 (stereo not shown) [Example 34, 4-(Pyrimidin-2-yl)piperazine-1-[1-(2,4-dimethoxybenzenesulfonyl)-5-cyano-2-oxo-3-(2-ethoxyphenyl)-2,3-dihydro-1H-indol-3-yl]carboxamide]	< 10	< 100
CCOc1ccccc1C1(NC(=O)N2CCN(c3cnccn3)CC2)C(=O)N(S(=O)(=O)c2ccc(OC)cc2OC)c2ccc(C#N)cc21 (stereo not shown) [Example 35, 4-(Pyrazin-2-yl)piperazine-1-[1-(2,4-dimethoxybenzenesulfonyl)-5-cyano-2-oxo-3-(2-ethoxyphenyl)-2,3-dihydro-1H-indol-3-yl]carboxamide]	10 to 100	< 100
CCOc1ccccc1C1(OC(=O)N2CCN(c3nccs3)CC2)C(=O)N(S(=O)(=O)c2ccc(C#N)cc2)c2ccc(C#N)cc21 (stereo not shown) [Example 42, 1-(4-Cyanobenzenesulfonyl)-5-cyano-2-oxo-3-(2-ethoxyphenyl)-2,3-dihydro-1H-indol-3-yl 4-(thiazol-2-yl)piperazine-1-carboxylate]	10 to 100	< 100
CCOc1ccccc1C1(NC(=O)N2CCN(c3ccc(C#N)cn3)CC2)C(=O)N(S(=O)(=O)c2ccc([N+](=O)[O-])cc2)c2ccc(C#N)cc21 (stereo not shown) [Example 43, 4-(5-Cyanopyridin-2-yl)piperazine-1-[1-(4-nitrobenzenesulfonyl)-5-cyano-2-oxo-3-(2-ethoxyphenyl)-2,3-dihydro-1H-indol-3-yl]carboxamide]	10 to 100	< 100
CCOc1ccccc1C1(NC(=O)N2CCN(c3ccc(C#N)cn3)CC2)C(=O)N(S(=O)(=O)c2ccccc2OC)c2ccc(C#N)cc21 (stereo not shown) [Example 45, 4-(5-Cyanopyridin-2-yl)piperazine-1-[1-(2-methoxybenzenesulfonyl)-5-cyano-2-oxo-3-(2-ethoxyphenyl)-2,3-dihydro-1H-indol-3-yl]carboxamide]	10 to 100	< 100
CCOc1ccccc1C1(NC(=O)N2CCN(c3ccc(C#N)cn3)CC2)C(=O)N(S(=O)(=O)c2ccc(Cl)cc2)c2ccc(C#N)cc21 (stereo not shown) [Example 46, 4-(5-Cyanopyridin-2-yl)piperazine-1-[1-(4-chlorobenzenesulfonyl)-5-cyano-2-oxo-3-(2-ethoxyphenyl)-2,3-dihydro-1H-indol-3-yl]carboxamide]	10 to 100	< 100
CCOc1ccccc1C1(NC(=O)N2CCN(c3ccc(C#N)cn3)CC2)C(=O)N(S(=O)(=O)c2ccc(C#N)cc2)c2ccc(C#N)cc21 (stereo not shown) [Example 47, 4-(5-Cyanopyridin-2-yl)piperazine-1-[1-(4-cyanobenzenesulfonyl)-5-cyano-2-oxo-3-(2-ethoxyphenyl)-2,3-dihydro-1H-indol-3-yl]carboxamide]	10 to 100	< 100
